Source: US12617818B2, “Compositions and methods for modulating myosin subfragment-2 coiled coil stability and methods for using them” (UNIVERSITY OF NORTH TEXAS, priority 2020, dated 2026)
“And” between values parts separate entries of the source, which are not always exact repeats. Equal values may be shown once.

Columns and labels:
[1] = molecular target: T1, human cardiac myosin S2 peptide (Homo sapiens, UniProt P12883); assay: Competitive ELISA (cELISA) against polyclonal anti-S2 antibody; assay type: binding; conditions: curve fit of OD vs peptide concentration; read-out: binding efficiency (Kd) to human cardiac myosin S2 peptide
T1 construct: The 19 residue peptide was chemically synthesized
Description: Phosphate buffer saline (PBS) contained 0.14 M sodium chloride, 2.7 mM potassium chloride, 1.5 mM potassium phosphate monobasic, and 8.1 mM sodium phosphate dibasic with pH 7.4. Detergent buffer was made with 0.05% triton X-100 in PBS, blocking buffer was made with 3% powdered milk in detergent buffer. Assay buffer contained 100 mM potassium phosphate dibasic, 100 mM potassium phosphate monobasic, 1 M potassium chloride and 10 mM magnesium chloride with pH 7.0. Stocks of primary antibody (polyclonal antibody anti-S2), rabbit skeletal myosin, human cardiac myosin S2 peptide, stabilizer and destabilizer peptide. Secondary antibody conjugated with alkaline phosphatase was anti-guinea pig immunoglobulin G (IgG)-alkaline phosphatase (Sigma-Aldrich, catalog number A5062) produced in goat and isolated by affinity chromatography. Substrate was 5-Bromo-4-chloro-3-indolyl phosphate (BCIP) tablets dissolved in 10 ml of distilled water per tablet and 96 well microtiter plate.
Competitive Enzyme Linked Immunosorbent Assay (cELISA) is a classical immunochemical test to validate the binding efficiency and specificity in lower molar concentrations (Yorde et al., 1976; Voller et al., 1978; Walker, J. M. 1996). In this assay the polyclonal antibody anti-S2 raised against single alpha helix of myosin S2 would be used to compete with stabilizer or destabilizer peptide to bind myosin S2 in rabbit skeletal myosin molecule as well as small human cardiac myosin S2 peptide. This cELISA, thus have two molecules polyclonal anti-S2 and stabilizer peptide which have two binding sites one on rabbit skeletal myosin and the other one being on small human cardiac myosin S2. Since both polyclonal anti-S2 and stabilizer peptide were designed against human β-cardiac myosin S2 they both would have a stronger affinity towards the smaller human β-cardiac myosin S2 peptide against the myosin S2 on rabbit skeletal myosin.
To test the binding specificity and efficiency of stabilizer or destabilizer peptide the following setup was used. Start of the setup would be to coat the wells with rabbit skeletal myosin molecule and add appropriate amount human cardiac myosin S2 peptide that would bind the primary polyclonal anti-S2 antibody and when washed there won't be enough primary polyclonal anti-S2 antibody to bind myosin S2 of rabbit skeletal myosin adsorbed on the wells. When alkaline phosphatase conjugated secondary antibody is added on to the wells, it won't have enough or none primary polyclonal anti-S2 antibody to bind. After addition of color developing BCIP substrate to the wells it would lead to low or no color development leading to lower optical density (OD). […]

[2] = molecular target: T2, smooth muscle myosin S2 peptide (MYH11) (Homo sapiens, UniProt P35749); assay: FRET of smooth muscle myosin S2 peptide dimer with anti-S2 peptides; assay type: binding; conditions: control, no anti-S2 peptide; read-out: Dissociation Constant (Kd) of S2 peptide dimer
T2 construct: A 21 residue peptide of the S2 region of MYH11 was matched to the previously synthesized S2 peptide; host or cells: chemical synthesis
Excerpt: Human smooth muscle myosin heavy chain (MYH11) is a part of the non-striated muscle. This gene can be found within esophagus, endometrium, duodenum, etc. A 21 residue peptide of the S2 region of MYH11 was matched to the previously synthesized S2 peptide of cardiac isoform and chemically synthesized 926-946. Generated amino acid sequence used is as follow: • Smooth: NH2-[…]—COOH (SEQ ID NO:11)
Resonance energy probes (donor and acceptor) were covalently attached to synthetic myosin S2 peptides of cardiac muscle, E930del cardiac muscle, E924K cardiac muscle, smooth muscle, and skeletal muscle (Aboonasrshiraz, N., 2020).
Acceptor probe was conjugated to muscle myosin S2 peptides at N-terminus. Muscle myosin S2 peptides were dissolved in 20 mM HEPES buffer at pH 8.0. And FITC was dissolved in few drops of N, N dimethyl formamide. Lastly, FITC and muscle myosin S2 peptide was reacted together in 1 to 1 molar ratio and was let to react for 120 minutes at room temperature. […]
In FRET assay, Fluorescein Isothiocyanate (FITC) functioned as fluorescent acceptor probe and Terbium Diethylene Triamine Pentaacetic Acid-Cytosine (Lanthanide-DTPA-Cytosine) functioned as donor probe. […] Lifetime of donor probe was measured in milliseconds.
The specificity of peptides were later tested on the myosin S2 of the smooth muscle (MYH11). […] Calculated separation distance in presence of the stabilizer peptide was 3.34 nm.

[3] = molecular target: T3, cardiac muscle myosin S2 peptide E930del (MYH7 E930del) (Homo sapiens, UniProt P12883, DEL931-931); assay: GFS, uncoiling of E930del cardiac myosin S2 peptide dimer; assay type: biochemical; conditions: for Force required to uncoil S2 molecule: length 10 nm, absence of stabilizer, ± SEM
T3 construct: host or cells: chemical synthesis
T3 sequence (P12883 with tags, fused parts or gaps DEL931-931): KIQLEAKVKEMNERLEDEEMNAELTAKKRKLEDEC
Excerpt: (§1) 3-aminopropyltriethoxysilane, acetone, coupling buffer (0.01 M pyridine in water with pH 6.0), 5% glutaraldehyde, quenching solution (1 M glycine in water with pH 7.0), blocking buffer (0.01 M Tris, 0.1% sodium azide, 0.1% bovine serum albumin, 0.15 M sodium chloride, and 0.001 M ethylenediaminetetraacetic acid with pH 7.0), wash buffer (0.01 M Tris, 0.1% sodium azide, 0.15 M sodium chloride, and 0.001 M ethylenediaminetetraacetic acid with pH 7.0) low salt buffer (0.1 M potassium chloride, 0.02 M imidazole, 5 mM magnesium chloride, with pH 7.0), 1-ethyl-3-(3-dimethyaminopropyl) carbodiimide, N-hydroxysuccinamide, iodoacetamide-succinimidyl ester, 8M urea solution (50 mM imidazole and 0.1 mM tris (2-carboxyethyl) phosphine with pH 7.0) monodisperse silica beads, glass slides, glass coverslips, vacuum grease, rabbit skeletal myosin, purified actin (G-actin), 1 μM human β-cardiac myosin S2 peptide, 1 μM human β-cardiac mutants myosin S2 peptide (E930del and E924K), 1 μM human skeletal myosin S2 peptide, 1 μM human smooth myosin S2 peptide, stabilizer peptide, and destabilizer peptide. A light microscope with an objective lens of 10× was mounted on an alt-azimuthal mount. A digital video camera of Sony, XCD-V60 was replaced with the ocular lenses. Extension springs on steel bracket held the alt-azimuthal mount suspended.
Gravitational force spectroscopy (GFS), is a single molecule force spectroscopy that utilizes gravitational force to measure absolute length of a single molecule at the given force calculated by the density of the bead suspending the molecule. This technique was discovered and developed in Root lab, which measures the forces in piconewton and sub-piconewton levels. Other than absolute length of a molecule, GFS measures force range required to uncoil, stretch or extend the molecule yielding a force-distance profile for the suspended molecule. Besides that, based on the force-distance profile, number of amino acids within the molecule can be calculated. […] The GFS allowed to test the flexibility or stability of a single molecule of myosin S2 peptide and also for the S2 peptides treated with anti-S2 peptides. Flexibility of myosin S2 is not dependent on assembly myosin as a thick filament or myosin in its single molecule form. […]
Free fall mode, another measurement variant of GFS which allows the user to get a force distance profile on a single molecule experiencing the gravitational force. […] During the free fall mode, GFS has a single molecule which is suspended within an immobile edge and mobile bead will now experience the variable force which would be calculated by the product of mass of the bead and the acceleration of the GFS. […]

[4] = molecular target: skeletal muscle myosin S2 peptide (MYH2) (Homo sapiens, UniProt Q9UKX2); assay: GFS, uncoiling of skeletal myosin S2 peptide dimer; assay type: biochemical; design: host or cells: chemical synthesis; conditions: length 10 nm, absence of anti-S2 peptides, ± SEM
Sequence of skeletal muscle myosin S2 peptide (MYH2) (Q9UKX2 918-953 limits assumed): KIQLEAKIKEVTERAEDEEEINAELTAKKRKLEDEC
Excerpt: as §1
(§2) Gravitational force spectroscopy (GFS), is a single molecule force spectroscopy that utilizes gravitational force to measure absolute length of a single molecule at the given force calculated by the density of the bead suspending the molecule. This technique was discovered and developed in Root lab, which measures the forces in piconewton and sub-piconewton levels. Other than absolute length of a molecule, GFS measures force range required to uncoil, stretch or extend the molecule yielding a force-distance profile for the suspended molecule. Besides that, based on the force-distance profile, number of amino acids within the molecule can be calculated. […] The GFS allowed to test the flexibility or stability of a single molecule of myosin S2 peptide and also for the S2 peptides treated with anti-S2 peptides. Flexibility of myosin S2 is not dependent on assembly myosin as a thick filament or myosin in its single molecule form. The flexibility of myosin S2 region was reported to be similar in single molecule form or myosin in a thick filament assembly thus it could be conceived that the changes seen on flexibility of myosin S2 in presence of anti-S2 peptides would correlate to changes in myosin S2 flexibility for myosin in a thick filament form (Singh et al., 2018). The schematic diagram of GFS is shown below (schematic diagrams of GFS which has two modes: (FIG. 15) free-fall mode, (FIG. 16) rotational mode.
Free fall mode, another measurement variant of GFS which allows the user to get a force distance profile on a single molecule experiencing the gravitational force. Free fall mode allows a variable force by the virtue of gravity to be exerted on a single molecule. The GFS setup, light microscope with mounted camera on spring on alt-azimuthal platform, can be dropped. The start of free-fall mode force applied to the bead is zero or close to zero. […] As the platform goes towards equilibrium, trace of the acceleration decays. During the free fall mode, GFS has a single molecule which is suspended within an immobile edge and mobile bead will now experience the variable force which would be calculated by the product of mass of the bead and the acceleration of the GFS.
The product of the GFS acceleration and the mass of the bead will provide a force trace for the single molecule tethered between the immobile edge and mobile bead. The image processing would provide distance trace for the single molecule experiencing the free fall by the GFS. When this force trace is aligned with distance trace will yield the extension or the stretch experience by the single molecule under variable forces. […]

[5] = test system: primary polyclonal anti-S2 antibody; assay: cELISA of human cardiac myosin S2 peptide against rabbit skeletal myosin S2 for antibody; assay type: binding; conditions: antibody diluted 1:64
Description: To evaluate the amount of cardiac myosin S2 peptide that would compete with rabbit skeletal myosin S2 to bind primary polyclonal anti-S2 antibody, the microtiter plate was coated with rabbit skeletal myosin first to that was added two fold dilutions of human cardiac myosin S2 peptide from 1000 nanomolar (nM) to 1 nM. Following this 1:64 diluted primary polyclonal antibody was added. After the washing step, secondary antibody is added followed by BCIP and development of color or OD was recorded and the video was analyzed by Image J. The OD will decrease as the concentration of human cardiac myosin S2 increases. […] The minimum amount of human cardiac myosin S2 peptide that would bind primary polyclonal anti-S2 antibody was at 62.5 nM (FIG. 36). Such a high binding efficiency was expected, since primary polyclonal anti-S2 antibody was raised against the same human cardiac myosin S2.

[6] = molecular target: T4, cardiac muscle myosin S2 peptide (MYH7) (Homo sapiens, UniProt P12883); assay: Gravitational force spectroscopy (GFS), uncoiling of cardiac myosin S2 peptide dimer; assay type: biochemical; conditions: length 10 nm, absence of anti-S2 peptides, ± SEM
T4 construct: host or cells: chemical synthesis
T4 sequence (P12883 912-947 limits assumed): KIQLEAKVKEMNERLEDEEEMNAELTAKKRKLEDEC
Excerpt: as §1, §2
GFS set up assembly contains a light microscope that is horizontally mounted on an alt-azimuthal which is suspended with help of extension springs on a steel bracket. To capture both images and videos of suspended molecule, a digital video camera has been placed instead of the ocular lenses. The molecule of interest is tethered between an immobile edge of glass coverslip placed on a glass slide and mobile silica or glass bead. Slide with the molecule of interest in inserted into the light microscope component of GFS. The bead with molecule of interest is imaged through the microscope and then oriented to the direction of gravity vector to allow the maximal gravitation force exerted on to the bead. GFS has two modes, one is called rotational mode or an equilibrium mode which measures the absolute length of a single molecule and the second one is called free fall mode which measures the force required to unwind, uncoil, stretch or extend the molecule of interest.
Free fall mode, another measurement variant of GFS which allows the user to get a force distance profile on a single molecule experiencing the gravitational force. […]

Compound: C[C@H](NC(=O)[C@H](CCCCN)NC(=O)[C@H](Cc1ccccc1)NC(=O)[C@H](CCCCN)NC(=O)[C@H](CCCCN)NC(=O)[C@H](CCCCN)NC(=O)[C@H](CCCCN)NC(=O)[C@H](CCCCN)NC(=O)[C@H](CCCCN)NC(=O)[C@H](CCCCN)NC(=O)[C@@H](N)CCCCN)C(=O)N[C@@H](CCCCN)C(=O)N[C@@H](CCCCN)C(=O)N[C@@H](CCCCN)C(=O)N[C@@H](CCCCN)C(=O)N[C@@H](CCCCN)C(=O)N[C@@H](CCCCN)C(=O)O [stabilizer peptide]
- Kd [1]: 1.37 nM and 1.38 nM

Compound: H-EMEARLEEEEDRGQQLQAERK-OH [Smooth Myosin S2, reference compound]
- Kd [2]: 302 nM

Compound: H-EMNERLEDEEMNAELTAK-OH [Cardiac Myosin S2 Mutant, E930del]
- Force required to uncoil S2 molecule [3]: 4.11E−01 ± 2.97E−02 pN
- Force required to uncoil S2 molecule ([3]; listed as E930del): 4.11×10^−1±2.97×10^−2 pN
- mechanical instability compared to wild type cardiac muscle myosin S2 ([3]; no anti-S2 peptide): 2.10 times

Compound: H-EVTERAEDEEEINAELTAK-OH [Skeletal Myosin S2, reference compound]
- Force required to uncoil S2 molecule [4]: 4.50E−01 ± 5.56E−02 pN
- Force required to uncoil S2 molecule ([4]; listed as skeletal muscle myosin S2): 4.50×10^−1±5.56×10^−2 pN

Compound: H-EMNERLEDEEEMNAELTAK-OH [Cardiac Myosin S2, reference compound]
- minimum amount that would bind primary polyclonal anti-S2 antibody [5]: 62.5 nM
- Force required to uncoil S2 molecule [6]: 8.63E−01 ± 7.45E−02 pN
- Force required to uncoil S2 molecule ([6]; listed as cardiac muscle myosin S2): 8.63×10^−1±7.45×10^−2 pN
